In patent US20100330028A1, “COMBINATION THERAPY FOR CHRONIC DERMAL ULCERS” (The Board of Regents THe Universityof Texas System, priority 2007, published 2010):

Key:
[1] = test system: Human coronary artery endothelial (HCAE) cells; assay: Migration of HCAE cells through fibronectin-coated insert toward bFGF; format: cell-based; conditions: bFGF 10 ng/ml, 22 h
Method: (§1) The design of experiments to measure invasion and migration of endothelial cells toward the angiogenic factor bFGF (basic fibroblast growth factor) is shown in FIGS. 5A and 6A, respectively. The standard assay used 5×10^4 cells added to the top of the insert in 250 μl of medium. The lower portion of the apparatus contained 750 μl of medium, plus or minus bFGF. […] Transmembrane cell invasion and migration assays were performed using BD FluoroBlok (BD Bioscience, Bedford, Mass.) inserts coated with BD Matrigel Matrix (a biologically active basement membrane preparation) or with fibronectin, respectively. […] (R&D System, Minneapolis, Minn.) (FGF) or medium alone (CTR) were added to the lower chamber of the insert plate as a chemoattractant. The cells were allowed to invade or migrate for 22 hours. Cells were labeled post invasion or post migration with Calcein AM (4 μg/ml) and the fluorescence of the cells that invaded through the BD Matrigel Matrix or migrated to the underside of the insert membrane was measured using a plate reader at 485 nm (excitation) and 530 nm (emission).

[2] = test system: Human coronary artery endothelial (HCAE) cells; assay: Invasion of HCAE cells through Matrigel toward bFGF; format: cell-based; conditions: bFGF 10 ng/ml, 22 h
Method: as §1

23C53 = assay: Binding of biotin-conjugated thrombin to complementary peptide 23C53
AC-23 = assay: Binding of biotin-conjugated thrombin to complementary peptide AC-23
thrombin receptor [3] = conditions: cited from earlier work
thrombin receptor [4] = conditions: cited from earlier work; remark: listed apart in the source
[5] = test system: Human coronary artery endothelial (HCAE) cells; assay: Migration of HCAE cells through fibronectin-coated insert toward PDGF; format: cell-based; conditions: PDGF 10 ng/ml, 22 h
Method: (§2) The design of experiments to measure invasion and migration of endothelial cells toward the angiogenic factor PDGF (platelet-derived growth factor-BB) is shown in FIGS. 7A and 8A respectively. The standard assay used 5×10^4 cells added to the top of the insert in 250 μl of medium. The lower portion of the apparatus contained 750 μl of medium, plus or minus PDGF. […] Transmembrane cell invasion and migration assays were performed using BD FluoroBlok inserts coated with BD Matrigel Matrix (a biologically active basement membrane preparation) or with fibronectin (BD Bioscience, Bedford, Mass.), respectively. […] PDGF [10 ng/ml] (R&D System, Minneapolis, Minn. (PDGF) or medium alone (CTR) were added to the lower chamber of the insert plate as a chemoattractant. The cells were allowed to invade or migrate for 22 hours. Cells were labeled post invasion or post migration with Calcein AM (4 μg/ml) and the fluorescence of the cells that invaded through the BD Matrigel Matrix or migrated to the underside of the insert membrane was measured using a plate reader at 485 nm (excitation) and 530 nm (emission).

[6] = test system: Human coronary artery endothelial (HCAE) cells; assay: Invasion of HCAE cells through Matrigel toward PDGF; format: cell-based; conditions: PDGF 10 ng/ml, 22 h
Method: as §2

23C53, sequence (as listed by the source): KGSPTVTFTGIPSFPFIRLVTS
AC-23, sequence (as listed by the source): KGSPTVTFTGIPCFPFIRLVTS

**Q.** Which “Increase of endothelial cell migration by bFGF compared to control medium not containing bFGF” value [1] does the source give for “bFGF: angiogenic factor basic fibroblast growth factor (R&D System)” here?
**A.** ~40%

**Q.** What about the “bFGF-induced endothelial cell invasion as % of invasion with control medium (CTR)” value [2] of the same substance?
**A.** ~170%

**Q.** For thrombin, which “Specific binding of biotin-conjugated thrombin to 23C53” value (23C53) is on record?
**A.** bind specifically

**Q.** And the “Specific binding of biotin-conjugated thrombin to AC23” value (AC-23)?
**A.** bind specifically

**Q.** Which “Induction of mitogenesis / mitogenic signals” value (thrombin receptor [3]) does the source give for “p519-530: intermediate thrombin peptide derivative, residues 519-530 of human thrombin (QPSVLQVVNLPI; UniProt P00734 519-530, looked up, fragment)” here?
**A.** retains the ability to mediate mitogenesis but to a much lesser degree than p508-530

**Q.** With “p508-530: stimulatory thrombin polypeptide derivative containing fibronectin- and serine protease-homologous domains, residues 508 to 530 of human thrombin” as the substance, how does the “Binding to thrombin receptors” value (thrombin receptor [4]) read?
**A.** bind to thrombin receptors with high-affinity

**Q.** And the “Induction of mitogenesis / mitogenic signals” value (thrombin receptor [3])?
**A.** substitute for DIP-alpha-thrombin as an initiator of receptor occupancy-related mitogenic signals

**Q.** Which results are given for PDGF?
**A.** Effect of PDGF on endothelial cell migration compared to control (CTR) [5]: no effect; Effect of PDGF on endothelial cell invasion compared to control medium without PDGF [6]: no effect
